Data taken from patent US8809367B2, “1-1-Oxo-1,2,3,4-tetrahydroisoquinolin-7-yl)urea derivatives as N-formyl peptide receptor like-1 (FPRL-1) receptor modulators” (Allergan, Inc., priority 2011, dated 2014).

Biological target: T1, FPRL-1 (Homo sapiens, UniProt P25090)
T1 construct: expressed in transfected cells
T1 sequence (P25090 1-351): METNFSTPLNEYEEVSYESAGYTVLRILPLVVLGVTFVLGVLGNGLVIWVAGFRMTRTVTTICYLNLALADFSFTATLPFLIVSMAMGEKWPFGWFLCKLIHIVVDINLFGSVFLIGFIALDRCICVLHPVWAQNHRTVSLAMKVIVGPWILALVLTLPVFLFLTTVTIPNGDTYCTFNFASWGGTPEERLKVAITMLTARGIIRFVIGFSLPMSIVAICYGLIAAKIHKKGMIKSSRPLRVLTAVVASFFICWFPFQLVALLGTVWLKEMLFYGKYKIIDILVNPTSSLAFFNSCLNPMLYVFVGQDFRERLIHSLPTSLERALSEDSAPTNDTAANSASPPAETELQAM
Test: compound-induced calcium activity on FLIPR Tetra in CHO-Ga16 cells stably expressing FPRL1
Format: cell-based
Details: for FPRL-1 Ga16-CHO (eff): efficacy value in brackets under EC50; for EC50: tested at 0.61 to 10,000 nM
Description: CHO-Ga16 cells stably expressing FPRL1 were cultured in (F12, 10% FBS, 1% PSA, 400 μg/ml geneticin and 50 μg/ml hygromycin) and HEK-Gqi5 cells stable expressing FPR1 were cultured in (DMEM high glucose, 10% FBS, 1% PSA, 400 μg/ml geneticin and 50 μg/ml hygromycin). In general, the day before the experiment, 18,000 cells/well were plated in a 384-well clear bottom poly-d-lysine coated plate. The following day the screening compound-induced calcium activity was assayed on the FLIPR^Tetra. The drug plates were prepared in 384-well microplates using the EP3 and the MultiPROBE robotic liquid handling systems. Compounds were tested at concentrations ranging from 0.61 to 10,000 nM. Results are expressed as EC50 (nM) and efficacy values.

FPRL-1 Ga16-CHO (eff) | EC50 | Structure (SMILES)
(0.91) | 13.5 nM | CSc1ccc(NC(=O)Nc2ccc3c(c2)C(=O)N(CCc2c[nH]cn2)C(c2ccc(Cl)cn2)C3)cc1 (stereo not drawn) [Compound 28, 1-{3-(5-chloropyridin-2-yl)-2-[2-(1H-imidazol-4-yl)ethyl]-1-oxo-1,2,3,4-tetrahydroisoquinolin-7-yl}-3-[4-(methylthio)phenyl]urea]
(1.00) | 32 nM | CNCCN1C(=O)c2cc(NC(=O)Nc3ccc(C(C)=O)cc3)ccc2CC1c1ccc(C#N)cc1 (stereo not drawn) [Compound 3, 1-(4-acetylphenyl)-3-{3-(4-cyanophenyl)-2-[2-(methylamino)ethyl]-1-oxo-1,2,3,4-tetrahydroisoquinolin-7-yl}urea]
(0.90) | 34 nM | CC(=O)c1ccc(NC(=O)Nc2ccc3c(c2)C(=O)N(CCN)C(c2ccc(C#N)cc2)C3)cc1 (stereo not drawn) [Compound 2, 1-(4-acetylphenyl)-3-[2-(2-aminoethyl)-3-(4-cyanophenyl)-1-oxo-1,2,3,4-tetrahydroisoquinolin-7-yl]urea]
